Results: US20060084599A1, “Compositions, methods and kits relating to notch signaling” (Maine Medical Center, priority 2003, published 2006)
Marks after values point to notes of the source that are not given here.

Columns and labels:
Type in all cases: cell-based, murine
cortical neurospheres = experiment: Cortical neurosphere model, secondary sphere formation; conditions: for F/SP × 10^2 / Cells/Founder (F) / Secondary Spheres (SP): at day 10; for Cells/Founder (F) / Secondary Spheres (SP): mean ± SD of three experiments; for secondary spheres per primary sphere: primary spheres grown 2 weeks with factor, secondary spheres in standard media
Text: Murine E13 cerebral cortices were dissected, the ventricular zone isolated, dissected free of the meninges and utilized as a source for the generation of clonal neurspheres. The resulting cells were dispersed by aspiration to produce single cells and cells expressing the […], CD24 as previously described (Rietze et al., 2001), and peanut agglutinin antigen (PNA) were sorted using a FASC Vantage SE cell sorter at a low gate (CD24^low/PNA^low), and the cells were subjected to immunofluoresence microscopy using an antibody against CD24 (Rietze et al., 2001, Nature 412:736-739). Double-positive cells (2×10^3 /ml) were plated in suspension as described (Reynolds et al., 1992, J. Neurosci. 12:4565-4574; Reynolds et al., 1992, Science 255:1707-1710) and secondary neurospheres generated 14 days later by isolating single spheres followed by trypsin digestion of each sphere. Cells obtained from the sphere were placed in suspension culture at a clonal cell seed density and colonies selected.
The E14 prefrontal ventricular zone was dissected and plated at a clonal neurosphere-forming density in the presence of either sJ1, sDl1, thrombin, TRAP or no supplementation. After 2 weeks, the clones were dissociated to single cells and secondary spheres were generated using standard media with no supplementation (Reynolds et al., 1992, J. Neurosci. 12:4565-4574).
Secondary spheres (SP) are formed from the dissociation of founder (F) spheres. The data presented are the number of colonies (mean ± SD of three experiments). (*=p#0.05).

NCSC populations [1] = experiment: Clonogenic differentiation of primary NCSC clones (differentiation markers, GFAP immunoreactivity); conditions: for NCSC clones not expressing gliogenic or neurogenic differentiation markers: after 7 days of expansion
Description: (§1) Clonogenic assays were performed as described (Stemple et al., 1992, Cell 71:973-985). Briefly, populations of murine NCSC were plated at a clonal density and maintained for a maximum of 14 days in Morrison media supplemented with 15% chick embryo extract (Morrison et al., 1999, Cell 96:737-749). The resulting clones were fixed in an acetic acid:ethanol solution (2:1) and stained with antibodies against peripherin (Chemicon) to detect neurons, smooth muscle actin (Sigma) to detect myofibroblasts, and GFAP (Chemicon) to detect Schwann cells. Clones were scored based on the appearance of just one phenotypic representative. The number and percentage of clones containing neurons only (N), Schwann cells only (S), myofibroblasts only (M), N+S, N+M, N+S+M, and S+M were scored at day 14 unless otherwise stated. The production of each representative phenotype in each individual clone was also scored to complement the clonal population assay.
Instead of examining the NCSC progeny after 14 days, developing clones were examined beginning at day 2 in order to determine the time period when gliogenic differentiation was initiated.
Specifically, clonogenic differentiation and serial subcloning assays were performed using NCSC clones incubated with either thrombin, sDl1, sJ1 or TRAP.

FGF1.A transcript = experiment: RT-PCR analysis of FGF1.A mRNA in NCSC; conditions: 48 hours; 7.5 nM sJ1, 5.0 nM sDl1, 10 μg/ml α-thrombin or 5 μg/ml TRAP
NCSC populations [2] = experiment: Serial subcloning and clonogenic differentiation of secondary NCSC; design: G (glial only) colonies / Sm (smooth muscle only) colonies / G + Sm colonies: unit not given here; conditions: for G (glial only) colonies / G + Sm colonies / N (neurons only) colonies / N + G + Sm (trifatent) colonies / N + G colonies / N + Sm colonies / Sm (smooth muscle only) colonies: differentiation profile of secondary NCSC clones; for G (glial only) colonies / G + Sm colonies / N (neurons only) colonies / N + G + Sm (trifatent) colonies / N + G colonies / N + Sm colonies / Sm (smooth muscle only) colonies / Secondary NSSC/ Founder: mean ± SD of three experiments; for clones that were trifatent (neurons, glial, and smooth muscle progeny): secondary clones from treated founder clones; for Secondary NSSC/ Founder: secondary stem cells from NCSC founders after ten days of expansion
Description: as §1
In order to generate secondary NCSC populations, founder clones originating from differentiating E10 clones at distinct time points during NCSC differentiation (days 2 through 18) were treated with trypsin and replated at a cell clonal density using methods previously described (Kubu et al., 2000, Genomics 70:150-152). The resulting cells were subjected to immunofluorescence microscopy using both p75^+ and P0^− antibodies (Kubu et al., 2000, Genomics 70:150-152) and the p75^+/P0^− cells identified as putative stem cells. All non-p75^+/P0^− cells were removed from the dish with a tungsten needle. The cultures of secondary NCSC clones were subjected to the clonogenic assay as described above.

[3] = test system: Nestin, Nucleostemin, and Bmi1 transcripts; experiment: RT-PCR of stem cell marker transcripts; conditions: for levels of Nestin, Nucleostemin and Bmi1 transcripts: p75+/P0- neural crest stem cells, 24 and 48 hours; for relative expression of Nestin, Nucleostemin and Bmi1 transcripts: primary and secondary neurosphere cultures
Description: RT-PCR was performed with 1 μg RNA using the Platinum Taq One Step RT-PCR kit (Invitrogen) as follows: RT (30 minutes at 50° C.), PCR (40 cycles at 94° C. for 15 seconds, at 58° C. for 30 seconds and 72° C. for 1 minute). All amplified cDNA was visualized with ethidium bromide followed by 1.5% agarose gel electrophoresis. RT-PCR analysis of fgf and gapdh was performed as previously described elsewhere herein. RT-PCR analysis of stem cell RNA was performed as previously described (Verdi et al., 1994, Neuron 13:1359-1372; Verdi et al., 1996, Neuron 16:515-527) using primers generating amplification products of Nucleostemin from 894 to 1304 of the mouse cDNA (sense: Nucleostemin 894 5′-CAAATGTGGGGAAAAGCAGTGTCA-3′ [SEQ ID NO:34] and antisense: Nucleostemin 1304 5′-GCAGGGGGATGGCAATAGTAACC-3′ [SEQ ID NO:35]); Bmi1 from 242 to 632 of mouse cDNA (sense: Bmi 242 5′-AATTAGTCCCAGGGCTTTTCAA-3′ [SEQ ID NO:36] and antisense: Bmi 632 5′-GGGCCATTTCTTCTCCAGGTAT-3′ [SEQ ID NO:37]), and Nestin from 320-748 (sense: Nestin 320 5′-CA ACC TTG CCG AAG AGC TGG-3′ [SEQ ID NO:38] and antisense: Nestin 720 5′-TCTAAGCGACTCTCCGAGCGC-3′ [SEQ ID NO:39]). Each reaction product was measured as a ratio relative to the amplification product of actin and samples were run in triplicate. All RT-PCR experiments were performed at least three times from separate stem cell isolations. Dual Luciferase Reporter Assay

Row | Molecule | F/SP × 10^2 (cortical neurospheres) | Cells/Founder (F) (cortical neurospheres) | Secondary Spheres (SP) (cortical neurospheres) | secondary spheres per primary sphere (cortical neurospheres) | NCSC clones not expressing gliogenic or neurogenic differentiation markers (NCSC populations [1]) | expression of the FGF1.A transcript in NCSC (FGF1.A transcript) | G (glial only) colonies (NCSC populations [2]) | G + Sm colonies (NCSC populations [2]) | N (neurons only) colonies (NCSC populations [2]) | N + G + Sm (trifatent) colonies (NCSC populations [2]) | N + G colonies (NCSC populations [2]) | N + Sm colonies (NCSC populations [2]) | Sm (smooth muscle only) colonies (NCSC populations [2]) | clones that were trifatent (neurons, glial, and smooth muscle progeny) (NCSC populations [2]) | Secondary NSSC/ Founder (NCSC populations [2]) | levels of Nestin, Nucleostemin and Bmi1 transcripts [3] | relative expression of Nestin, Nucleostemin and Bmi1 transcripts [3] | percentage of the colony expressing the glial-specific protein (GFAP) (NCSC populations [1]; at day 7) | gliogenic differentiation of NCSC (NCSC populations [1]; two week differentiation assay) | exposure time after which GFAP immunoreactive cells were detected (NCSC populations [1]; NCSC populations)
1 | thrombin | 13%* | 488 ± 166* | 64 ± 11 | 55±14 | 75±11% | induced the expression of the FGF1.A transcript | 0 ± 0 | 2.0 ± 2.1 | 0 | 86.8 ± 2.1 | 3.93 ± 3.8 | 4.5 ± 2.1 | 2.6 ± 1.01 | 86.8±2.1% | 36.8 ± 6.3 | no significant change | elevated |  |  | 
2 | sJ1: Soluble Jagged1, amino acid residues about 1 to 1067 (SEQ ID NO:3) of full-length human Jagged1 | 10%* | 527 ± 170* | 55 ± 14 | 64±11 | 84±7% | induced the expression of the FGF1.A transcript | 7.8 ± 1.4 | 3.4 ± 2.8 | 0 | 74.1 ± 9.1 | 7.0 ± 5.6 | 1.5 ± 1.7 | 6.2 ± 1.0 | 74.1±9% | 26.2 ± 6 | no significant change | elevated | 23±5 | capable of inducing gliogenic differentiation of the NCSC population over the two week period | 
3 | sDl1: soluble non-transmembrane form (extracellular domain) of the Notch ligand Delta1 (protein, left off: small tags and cut ends, soluble non-transmembrane form (extracellular domain) of the Notch ligand Delta1) QVWSSGVFELKLQEFVNKKGLLGNRNCCRGGAGPPPCACRTFFRVCLKHYQASVSPEPPCTYGSAVTPVLGVDSFSLPDGGGADSAFSNPIRFPFGFTWPGTFSLIIEALHTDSPDDLATENPERLISRLATQRHLTVGEEWSQDLHSSGRTDLKYSYRFVCDEHYYGEGCSVFCRPRDDAFGHFTCGERGEKVCNPGWKGPYCTEPICLPGCDEQHGFCDKPGECKCRVGWQGRYCDECIRYPGCLHGTCQQPWQCNCQEGWGGLFCNQDLNYCTHHKPCKNGATCTNTGQGSYTCSCRPGYTGATCELGIDECDPSPCKNGGSCTDLENSYSCTCPPGFYGKICELSAMTCADGPCFNGGRCSDSPDGGYSCRCPVGYSGFNCEKKIDYCSSSPCSNGAKCVDLGDAYLCRCQAGFSGRHCDDNVDDCASSPCANGGTCRDGVNDFSCTCPPGYTGRNCSAPVSRCEHAPCHNGATCHERGHRYVCECARGYGGPNCQFLLPELPPGPAVVDLTEKLEGQGGPFPW | 2.0% | 150 ± 69* | 3 ± 3 | 3±3 | 0±0% | did not influence the steady-state levels of the FGF1.A transcript | 72 ± 6.4 | 3.4 ± 2.8 | 0 | 0.5 ± 0.7 | 0 | 0 | 20.5 ± 6.5 | 0.5% | 0.6 ± 1.0 | sharply decreased |  |  |  | 48 h
